Test results reported in ChEMBL document CHEMBL3045592, “Studies of O,O-dimethyl α-(2,4-dichlorophenoxyacetoxy)ethylphosphonate (HW02) as a new herbicide. 1. Synthesis and herbicidal activity of HW02 and analogues as novel inhibitors of pyruvate dehydrogenase complex” (J Agric Food Chem, 2011).

What was measured:
Amaranthus retroflexus = assay: Post-emergence herbicidal activity against Amaranthus retroflexus assessed as growth inhibition at 225 ai g/ha after 20 days by green house test; format: functional
Digitaria sanguinalis = assay: Post-emergence herbicidal activity against Digitaria sanguinalis (hairy crabgrass) assessed as growth inhibition at 37.5 ai g/ha after 20 days by green house test; format: functional
[1] = Toxicity against Zea mays Gao you 1 (maize) assessed as growth inhibition at 150 ai g/ha post-emergent application measured after 20 days by green house crop selectivity test; format: organism-based; settings: Gao you 1, zea mays, in vivo, read-out: GI
Echinochloa crus-galli [2] = assay: Post-emergence herbicidal activity against Echinochloa crus-galli (barnyard grass) assessed as growth inhibition at 75 ai g/ha after 20 days by green house test; format: functional
Eclipta prostrata [3] = assay: Post-emergence herbicidal activity against Eclipta prostrata assessed as growth inhibition at 450 ai g/ha after 20 days by green house test; format: functional
Cardamine hirsuta [4] = assay: Post-emergence herbicidal activity against Cardamine hirsuta assessed as growth inhibition at 37.5 ai g/ha after 20 days by green house test; format: functional
Daucus carota [5] = assay: Post-emergence herbicidal activity against Daucus carota (carrot) assessed as growth inhibition at 450 ai g/ha after 20 days by green house test; format: functional
Medicago sativa [6] = assay: Post-emergence herbicidal activity against Medicago sativa (alfalfa) assessed as growth inhibition at 37.5 ai g/ha after 20 days by green house test; format: functional
Echinochloa crus-galli [7] = assay: Post-emergence herbicidal activity against Echinochloa crus-galli (barnyard grass) assessed as growth inhibition at 37.5 ai g/ha after 20 days by green house test; format: functional
Medicago sativa [8] = assay: Post-emergence herbicidal activity against Medicago sativa (alfalfa) assessed as growth inhibition at 300 ai g/ha after 20 days by green house test; format: functional
Echinochloa crus-galli [9] = assay: Post-emergence herbicidal activity against Echinochloa crus-galli (barnyard grass) assessed as growth inhibition at 18.75 ai g/ha after 20 days by green house test; format: functional
[10] = tested on: Brassica rapa subsp. oleifera; assay: Post-emergence herbicidal activity against Brassica rapa subsp. oleifera Si Yue Man assessed as growth inhibition at 37.5 ai g/ha after 20 days by green house test; format: functional
Eclipta prostrata [11] = assay: Post-emergence herbicidal activity against Eclipta prostrata assessed as growth inhibition at 18.75 ai g/ha after 20 days by green house test; format: functional
Oryza sativa [12] = assay: Inhibition of PDHc in Oryza sativa (rice) shoot mitochondria assessed as decrease in rate of NADH formation using sodium pyruvate as substrate at 10 microg/g preincubated for 25 min before substrate addition measured after 1 min by spectrophotometric assay
[13] = Toxicity against Zea mays Gao you 1 (maize) assessed as growth inhibition at 450 ai g/ha post-emergent application measured after 20 days by green house crop selectivity test; format: organism-based; settings: Gao you 1, zea mays, in vivo, read-out: GI
Daucus carota [14] = assay: Post-emergence herbicidal activity against Daucus carota (carrot) assessed as growth inhibition at 300 ai g/ha after 20 days by green house test; format: functional
Portulaca oleracea [15] = assay: Post-emergence herbicidal activity against Portulaca oleracea assessed as growth inhibition at 450 ai g/ha after 20 days by green house test; format: functional
Portulaca oleracea [16] = assay: Post-emergence herbicidal activity against Portulaca oleracea assessed as growth inhibition at 18.75 ai g/ha after 20 days by green house test; format: functional
Portulaca oleracea [17] = assay: Post-emergence herbicidal activity against Portulaca oleracea assessed as growth inhibition at 150 ai g/ha after 20 days by green house test; format: functional
Eclipta prostrata [18] = assay: Post-emergence herbicidal activity against Eclipta prostrata assessed as growth inhibition at 150 ai g/ha after 20 days by green house test; format: functional
Echinochloa crus-galli [19] = assay: Post-emergence herbicidal activity against Echinochloa crus-galli (barnyard grass) assessed as growth inhibition at 225 ai g/ha after 20 days by green house test; format: functional
Portulaca oleracea [20] = assay: Post-emergence herbicidal activity against Portulaca oleracea assessed as growth inhibition at 300 ai g/ha after 20 days by green house test; format: functional
Medicago sativa [21] = assay: Post-emergence herbicidal activity against Medicago sativa (alfalfa) assessed as growth inhibition at 18.75 ai g/ha after 20 days by green house test; format: functional
Cardamine hirsuta [22] = assay: Post-emergence herbicidal activity against Cardamine hirsuta assessed as growth inhibition at 75 ai g/ha after 20 days by green house test; format: functional
Oryza sativa [23] = assay: Inhibition of PDHc in Oryza sativa (rice) shoot mitochondria assessed as decrease in rate of NADH formation using sodium pyruvate as substrate at 1 microg/g preincubated for 25 min before substrate addition measured after 1 min by spectrophotometric assay
Xanthium strumarium = assay: Post-emergence herbicidal activity against Xanthium strumarium (cocklebur) assessed as growth inhibition at 225 ai g/ha after 20 days by green house test; format: functional
Echinochloa crus-galli [24] = assay: Post-emergence herbicidal activity against Echinochloa crus-galli (barnyard grass) assessed as growth inhibition at 300 ai g/ha after 20 days by green house test; format: functional
[25] = Toxicity against Zea mays Gao you 1 (maize) assessed as growth inhibition at 600 ai g/ha post-emergent application measured after 20 days by green house crop selectivity test; format: organism-based; settings: Gao you 1, zea mays, in vivo, read-out: GI

SMILES: COP(=O)(OC)C(C)OC(=O)COc1ccc(Cl)cc1Cl (stereo not drawn) [CLACYFOS]
- growth inhibition (GI) (Amaranthus retroflexus): 100%
- growth inhibition (GI) (Digitaria sanguinalis): 0%
- inhibition at 480 h [1]: 0%
- growth inhibition (GI) (Echinochloa crus-galli [2]): 0%
- growth inhibition (GI) (Eclipta prostrata [3]): 100%
- growth inhibition (GI) (Cardamine hirsuta [4]): 84%
- growth inhibition (GI) (Daucus carota [5]): 100%
- growth inhibition (GI) (Medicago sativa [6]): 72%
- growth inhibition (GI) (Echinochloa crus-galli [7]): 0%
- growth inhibition (GI) (Medicago sativa [8]): 97%
- growth inhibition (GI) (Echinochloa crus-galli [9]): 0%
- growth inhibition (GI) [10]: 90%
- growth inhibition (GI) (Eclipta prostrata [11]): 56%
- inhibition (Oryza sativa [12]): 16.9%
- inhibition at 480 h [13]: 0%
- growth inhibition (GI) (Daucus carota [14]): 100%
- growth inhibition (GI) (Portulaca oleracea [15]): 100%
- growth inhibition (GI) (Portulaca oleracea [16]): 50%
- growth inhibition (GI) (Portulaca oleracea [17]): 85%
- growth inhibition (GI) (Eclipta prostrata [18]): 90%
- growth inhibition (GI) (Echinochloa crus-galli [19]): 10%
- growth inhibition (GI) (Portulaca oleracea [20]): 95%
- growth inhibition (GI) (Medicago sativa [21]): 60%
- growth inhibition (GI) (Cardamine hirsuta [22]): 88%
- inhibition (Oryza sativa [23]): 8.2%
- growth inhibition (GI) (Xanthium strumarium): 95%
- growth inhibition (GI) (Echinochloa crus-galli [24]): 20%
- inhibition at 480 h [25]: 0%
